Patent US8952042B2, “FXR (NR1H4) binding and activity modulating compounds” (Phenex Pharmaceuticals AG, priority 2009, dated 2015)

System: BSEP and SHP gene expression
Assay: FXR target gene induction in mouse liver (qRT-PCR), high fat diet mice
Type: in vivo, C57/bI6 mice
Conditions: HFD mice, estimated 30 mg/kg daily in food, normalized to TBP
Protocol: C57/bI6 mice (Elevage Janvier, France) at the age of 8 weeks were put on a high fat diet (60% kcal from fat, Sniff, Soest, Germany, Cat. No. E15771-30 (Mod. Surwit)+0.5 cholesterol (Sigma-Aldrich, Germany) added) for 4 weeks. Baseline blood samples were taken after overnight starvation and fasting plasma glucose was determined using a Roche Accucheck device. In parallel L1-heparin plasma was generated for the determination of baseline total triglyceride (TG) and total cholesterol (TC) levels. Animals were maintained on the HFD+0.5% cholesterol diet for 8 weeks and weekly blood samples were taken for the monitoring of plasma TG and TC levels using routine enzymatic analysis kits (WAKO Diagnostics, Neuss, Germany). The test compounds were dissolved in 100% palm fat and then mixed into molten food for an estimated daily uptake of 30 mg/kg based on averaged food consumption in the 4 weeks HFD adaptation period. FIGS. 4 and 5 show the development of TG and TC values.
RNA was isolated using RNAzol RT Reagent (Fermentas) and mRNA levels determined by quantitative reverse-transcription polymerase chain reaction (qRT-PCR) using Absolute QPCR Rox Mix (Invitrogen) and a real-time PCR machine from Applied Biosystems (CA). Primer and probe sequences (5′ to 3′) used were: SHP, Fwd […]; Rev […]; probe 56-FAM/[…] and BSEP, Fwd […]; Rev […]; probe 56-FAM/ATGGCT […]. All samples were run in duplicate. […]

With `O=C(O)c1ccc(C2CC2c2ccc(OCc3c(-c4c(Cl)cccc4Cl)noc3C3CC3)cc2Cl)cc1` (racemic) [Example 12, 4-(2-(2-chloro-4-((5-cyclopropyl-3-(2,6-dichlorophenyl)isoxazol-4-yl)methoxy)phenyl)cyclopropyl)benzoic acid] the “gene expression of BSEP in liver” value was 6 fold and the “gene expression of SHP in liver” value was 6 fold.
